The record followed here is patent US20250161338A1, “Compounds for Anti-aging Intervention” (AGENCY FOR SCIENCE, TECHNOLOGY AND RESEARCH, priority 2022, published 2025).

The subject of experiment [1] is prototrophic yeast strain (CEN.PK113-7D). The experiment is described as follows: Yeast outgrowth in YPD liquid medium (CLS of aged cells). Format: cell-based, Saccharomyces cerevisiae. To be noted: for Outgrowth: concentration tested 100 μM, OD600 nm after 24 h in YPD at 30° C., age point day 14; for aged cell survival in yeast: various concentrations, outgrowth relative to Day 2 (FIGS. 22A to D). The procedure: (§1) CLS experiments were performed in 96-well plates with 200 μL yeast culture. Cellular inoculums were transferred into 96-well plates containing serially double-diluted concentrations (0 to 10 nM) of rapamycin. Cellular inoculum was transferred into 96-well plates containing serially double-diluted concentrations (0 to 8 mM) of 2,5-anhydro-D-mannitol, D-fructose, D-mannitol, D-maltose, and D-sorbitol in SD medium. Cells were incubated at 30° C., and the growth was measured at different time points. […] Cell survival was quantified at various age time points by three different approaches: (i) PI fluorescence-based method, (ii) outgrowth in YPD liquid medium, and (iii) spotting assay (FIG. 1).
Outgrowth (OD600) of aged cells was measured by the microplate reader. Quantification of cell survival for each age point was determined as relative to Day 1 (considered 100% cell survival). This quantification was performed by using the formula,
[formula] • where OutgrowthDay n refers to the OD600 nm absorbance reading recorded on a specific day, OutgrowthDay 1 refers to the OD600 nm absorbance reading recorded on the first day where 100% cell survival is assumed.
The CLS of the aged cells was further determined by the yeast outgrowth in YPD liquid medium method as described above. […] At chronological age point day 14, 3-μL of culture were transferred to a second 96-well plate containing 200 μL YPD medium.

Experiment [2] has the same test system. The experiment is described as follows: Propidium iodide fluorescence-based CLS method in yeast (incl. high-throughput screening).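 As to PI intensity: untreated reference is eight DMSO and water control wells per plate.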 Format: cell-based, Saccharomyces cerevisiae. To be noted: concentration tested 100 μM; for Yeast CLS increase: Yes/No call of the screen; for PI intensity: solvent DMSO or water, chronological age point Day 7 (72 h growth = Day 1), lower = more survival. As to the method: Yeast strain was recovered from frozen glycerol stock at 30° C. on YPD agar medium. Yeast was left to propagate in SD medium overnight at 30° C. with shaking at 220 revolutions per minute (rpm). Cells propagated overnight were diluted to a starting optical density at 600 nm (OD600) of approximately 0.2 in fresh SD medium to begin the chronological lifespan (CLS) experiments.
as §1
Yeast cells (40 μL) from different age time points were transferred into a second 96-well plate (different to the 96-well plate in which the CLS analysis as outlined above was performed). Cells were washed and incubated in 100 μL 1×phosphate buffered saline (PBS) with propidium iodide (PI) (5 μg/mL) for 15 minutes in the dark. Positive and negative control samples were included for quantitative analysis. Positive control (cells boiled at 100° C. for 15 minutes) was PI-stained and processed in the same 96-well plate. Samples without PI-stained cells served as the negative control. After incubation, cells were washed and resuspended in 100 μL PBS. The fluorescence reading of the samples (excitation and emission wavelengths at 535 nm and 617 nm, respectively) and OD600 were measured with a microplate reader (BioTek, Winooski, Vermont, United States). The fluorescence intensity of each sample was normalized with OD600. The background fluorescence signal of the unstained negative sample was subtracted from the normalized fluorescence intensity of each sample. The obtained fluorescence intensity of the positive control (boiled dead cells) was considered 0% cell survival. Cell death was validated by allowing the boiled dead cells to grow in medium. Cell survival at different age time points of samples were calculated by normalizing the fluorescence intensity with positive control sample (boiled cells).
High-throughput screening of various chemicals was tested using the same protocol for the propidium iodide fluorescence-based method as described above. The prototrophic yeast strain (CEN.PK113-7D) was grown in the synthetic defined medium with different chemical reagents at their respective single testing concentration (Table 1) in addition to eight replicates of DMSO and water controls in 96-well plates at 30° C.

Molecule `C#CC1(O)CC[C@H]2[C@@H]3CCC4=CC(=O)CC[C@@H]4[C@H]3CC[C@@]21CC` (mixture of isomers) [Norgestrel, reference compound] had an Outgrowth in experiment [1] of 0.1. Moreover, in experiment [2], the “Yeast CLS increase” value is “No” and the PI intensity is on record as 75,338.8.
In the same order, the values of `O=C(O)C(O)Cc1ccccc1` (racemic) [DL-3-Phenyllactic acid] are 0.1, “No” and 65,266.9.
On to `C[S+](C)CCC(N)C(=O)O.[Cl-]` (racemic) [DL-Methionine methylsulfonium (chloride)], for which, in experiment [1], the Outgrowth was found to be 0.1. For the same molecule, in experiment [2], the “Yeast CLS increase” value is reported as “No” and the PI intensity is 66,281.7.
Regarding `CC(C)(CO)C(O)C(=O)NCCCO` (racemic) [DL-Panthenol], in experiment [1], the Outgrowth amounted to 0.1. Further, in experiment [2], the “Yeast CLS increase” value was “No” and the PI intensity is recorded as 71,468.6.
For the molecule `NC(CO)C(=O)O` (racemic) [DL-Serine], the Outgrowth in experiment [1] is listed as 1.1. In addition, in experiment [2], the “Yeast CLS increase” value is given as “Yes” and the PI intensity is 33,155.7.
The molecule `O=C[C@H](O)[C@H](O)[C@H](O)CO` (single isomer, unassigned) [D-Ribose(mixture of isomers)] gave an Outgrowth in experiment [1] of 0.1. Besides, in experiment [2], the “Yeast CLS increase” value was “No” and the PI intensity was 60,023.1.
Turning to `O=C(O)c1ccc(O)cc1O` [2,4-Dihydroxybenzoic acid], the Outgrowth in experiment [1] is 0.1. Also, in experiment [2], the “Yeast CLS increase” value is recorded as “No” and the PI intensity is given as 76,326.3.
With `O=C(O)c1ccco1` [2-Furoic acid], the Outgrowth in experiment [1] is recorded as 0.1. For the same molecule, in experiment [2], the “Yeast CLS increase” value was “No” and the PI intensity is on record as 72,748.2.
In experiment [1], `Oc1ccc2ccccc2c1` [2-Naphthol] displayed an Outgrowth of 0.1. In addition, in experiment [2], the “Yeast CLS increase” value is reported as “No” and the PI intensity is on record as 72,298.9.
`CCCC(=O)C(=O)O` [2-Oxovaleric acid] gave an Outgrowth in experiment [1] of 0.1. Besides, in experiment [2], the “Yeast CLS increase” value is “No” and the PI intensity is 61,246.4.
In experiment [1], `CC(C(=O)O)c1ccccc1` (stereo not shown) [2-Phenylpropionic acid] came in with an Outgrowth of 0.1. Moreover, in experiment [2], the “Yeast CLS increase” value is on record as “No” and the PI intensity is 66,998.4.
The molecule `Nc1ncnc2c1ncn2[C@H]1C[C@H](O)[C@@H](CO)O1` [2′-Deoxyadenosine] yielded an Outgrowth in experiment [1] of 0.1. In experiment [2], the “Yeast CLS increase” value is “No” and the PI intensity is given as 70,796.4.
On to `COc1ccc(C=CC(=O)O)cc1OC` [3,4-Dimethoxycinnamic acid], for which the Outgrowth in experiment [1] came to 0.1. Moreover, in experiment [2], the “Yeast CLS increase” value is “No” and the PI intensity is given as 70,914.2.
With `O=c1[nH]cc(F)c(=O)[nH]1` [5-fluorouracil, reference compound], the “aged cell survival in yeast” value in experiment [1] is on record as “survived longer as compared to those without treatment”.
In the case of `CC(CCC(=O)NCC(=O)O)C1CCC2C3CCC4CC(O)CCC4(C)C3CC(O)C12C` (stereo not shown) [Glycodeoxycholic Acid], the PI intensity in experiment [2] was 68,981.6.
Take `COc1c(O)cc(O)c2c(=O)cc(-c3ccccc3)oc12` [Wogonin]: in experiment [2], the “Yeast CLS increase” value is on record as “No” and the PI intensity is recorded as 76,348.2.
As for `CC(C)c1c(C(=O)Nc2ccccc2)c(-c2ccccc2)c(-c2ccc(F)cc2)n1CC[C@@H](O)C[C@@H](O)CC(=O)O` [atorvastatin, reference compound], the “aged cell survival in yeast” value in experiment [1] is “survived longer as compared to those without treatment”.
Regarding `CN(Cc1cnc2nc(N)nc(N)c2n1)c1ccc(C(=O)N[C@@H](CCC(=O)O)C(=O)O)cc1` [methotrexate, reference compound], the “aged cell survival in yeast” value in experiment [1] is given as “survived longer as compared to those without treatment”.
On to hemin [reference compound], for which the “aged cell survival in yeast” value in experiment [1] is listed as “survived longer as compared to those without treatment”.
